Experiments:
Format in all cases: cell-based
HEK293S [1] = test: Binding affinity to Aplysia californica AchBP M116L,Y195F mutant expressed in HEK293S cells assessed as specific photoincorporation at 46 pmol by scintillation counting
[2] = Binding affinity to Aplysia californica AchBP V108M, M116L mutant expressed in HEK293S cells by scintillation proximity assay
HEK293S [3] = test: Binding affinity to Aplysia californica AchBP M116L mutant expressed in HEK293S cells assessed as specific photoincorporation at 46 pmol by scintillation counting
HEK293S [4] = test: Binding affinity to Aplysia californica AchBP M116Y, Y195F mutant expressed in HEK293S cells assessed as specific photoincorporation at 46 pmol by scintillation counting relative to wild type
HEK293S [5] = test: Binding affinity to Aplysia californica AchBP I106M, M116L, Y195F mutant expressed in HEK293S cells assessed as specific photoincorporation at 46 pmol by scintillation counting relative to wild type
[6] = Binding affinity to Aplysia californica AchBP V108M mutant expressed in HEK293S cells by scintillation proximity assay
HEK293S [7] = test: Binding affinity to Aplysia californica AchBP M116L mutant expressed in HEK293S cells assessed as specific photoincorporation at 46 pmol by scintillation counting relative to wild type
[8] = Binding affinity to Aplysia californica AchBP I118M mutant expressed in HEK293S cells by scintillation proximity assay
HEK293S [9] = test: Binding affinity to Aplysia californica AchBP I106M, M116L mutant expressed in HEK293S cells assessed as specific photoincorporation at 46 pmol by scintillation counting relative to wild type
HEK293S [10] = test: Binding affinity to Aplysia californica AchBP A107M, M116L, Y195F mutant expressed in HEK293S cells assessed as specific photoincorporation at 46 pmol by scintillation counting relative to wild type
HEK293S [11] = test: Binding affinity to Aplysia californica AchBP I118M, M116L mutant expressed in HEK293S cells assessed as specific photoincorporation at 46 pmol by scintillation counting
HEK293S [12] = test: Binding affinity to Aplysia californica AchBP V108M mutant expressed in HEK293S cells assessed as specific photoincorporation at 46 pmol by scintillation counting relative to wild type
[13] = Binding affinity to Aplysia californica AchBP M116Y, Y195F mutant expressed in HEK293S cells by scintillation proximity assay
HEK293S [14] = test: Binding affinity to Aplysia californica AchBP I118M, M116L, Y195F mutant expressed in HEK293S cells assessed as specific photoincorporation at 46 pmol by scintillation counting
HEK293S [15] = test: Binding affinity to Aplysia californica AchBP Y195F mutant expressed in HEK293S cells assessed as specific photoincorporation at 46 pmol by scintillation counting relative to wild type
[16] = Binding affinity to Aplysia californica AchBP I118M, M116L mutant expressed in HEK293S cells by scintillation proximity assay
[17] = Binding affinity to Aplysia californica AchBP I106M, M116L, Y195F mutant expressed in HEK293S cells by scintillation proximity assay
[18] = Binding affinity to Aplysia californica AchBP A107M, M116L, Y195F mutant expressed in HEK293S cells by scintillation proximity assay
HEK293S [19] = test: Binding affinity to Aplysia californica AchBP A107M mutant expressed in HEK293S cells assessed as specific photoincorporation at 46 pmol by scintillation counting relative to wild type
[20] = Binding affinity to Aplysia californica AchBP S114M, M116L mutant expressed in HEK293S cells by scintillation proximity assay
HEK293S [21] = test: Binding affinity to wild type Aplysia californica AchBP expressed in HEK293S cells assessed as specific photoincorporation at 46 pmol by scintillation counting
[22] = Binding affinity to Aplysia californica AchBP S114M, M116L, Y195F mutant expressed in HEK293S cells by scintillation proximity assay
[23] = Binding affinity to Aplysia californica AchBP S114M mutant expressed in HEK293S cells by scintillation proximity assay
[24] = Binding affinity to Aplysia californica AchBP Y195F mutant expressed in HEK293S cells by scintillation proximity assay
HEK293S [25] = test: Binding affinity to Aplysia californica AchBP I118M, M116L, Y195F mutant expressed in HEK293S cells assessed as specific photoincorporation at 46 pmol by scintillation counting relative to wild type
[26] = Binding affinity to Aplysia californica AchBP A107M mutant expressed in HEK293S cells by scintillation proximity assay
HEK293S [27] = test: Binding affinity to Aplysia californica AchBP S114M, M116L, Y195F mutant expressed in HEK293S cells assessed as specific photoincorporation at 46 pmol by scintillation counting relative to wild type
HEK293S [28] = test: Binding affinity to Aplysia californica AchBP V108M, M116L mutant expressed in HEK293S cells assessed as specific photoincorporation at 46 pmol by scintillation counting relative to wild type
HEK293S [29] = test: Binding affinity to Aplysia californica AchBP I118M, M116L mutant expressed in HEK293S cells assessed as specific photoincorporation at 46 pmol by scintillation counting relative to wild type
HEK293S [30] = test: Binding affinity to Aplysia californica AchBP A107M, M116L, Y195F mutant expressed in HEK293S cells assessed as specific photoincorporation at 46 pmol by scintillation counting
HEK293S [31] = test: Binding affinity to Aplysia californica AchBP I106M, M116L mutant expressed in HEK293S cells assessed as specific photoincorporation at 46 pmol by scintillation counting
HEK293S [32] = test: Binding affinity to Aplysia californica AchBP A107M, M116L mutant expressed in HEK293S cells assessed as specific photoincorporation at 46 pmol by scintillation counting relative to wild type
HEK293S [33] = test: Binding affinity to Aplysia californica AchBP S114M, M116L mutant expressed in HEK293S cells assessed as specific photoincorporation at 46 pmol by scintillation counting
[34] = Binding affinity to Aplysia californica AchBP A107M, M116L mutant expressed in HEK293S cells by scintillation proximity assay
HEK293S [35] = test: Binding affinity to Aplysia californica AchBP S114M, M116L, Y195F mutant expressed in HEK293S cells assessed as specific photoincorporation at 46 pmol by scintillation counting
HEK293S [36] = test: Binding affinity to Aplysia californica AchBP V108M, M116L mutant expressed in HEK293S cells assessed as specific photoincorporation at 46 pmol by scintillation counting
[37] = Binding affinity to Aplysia californica AchBP I118M, M116L, Y195F mutant expressed in HEK293S cells by scintillation proximity assay

## Clc1ccc(C2CC3CCC2N3)cn1 (racemic) [EPIBATIDINE]
HEK293S [1]
  Activity: 2%
[2]
  Kd: 2.9 nM
HEK293S [3]
  Activity: 35%
HEK293S [4]
  Activity: 30%
HEK293S [5]
  Activity: 13%
[6]
  Kd: 7.6 nM
HEK293S [7]
  Activity: 121%
[8]
  Kd: 10 nM
HEK293S [9]
  Activity: 90%
HEK293S [10]
  Activity: 13%
HEK293S [11]
  Activity: 16%
HEK293S [12]
  Activity: 33%
[13]
  Kd: 115 nM
HEK293S [14]
  Activity: 4.7%
HEK293S [15]
  Activity: 3.4%
[16]
  Kd: 5 nM
[17]
  Kd: 29 nM
[18]
  Kd: 25 nM
HEK293S [19]
  Activity: 93%
[20]
  Kd: 12 nM
HEK293S [21]
  Activity: 29%
[22]
  Kd: 24 nM
[23]
  Kd: 16 nM
[24]
  Kd: 21 nM
HEK293S [25]
  Activity: 16%
[26]
  Kd: 10 nM
HEK293S [27]
  Activity: 13%
HEK293S [28]
  Activity: 28%
HEK293S [29]
  Activity: 55%
HEK293S [30]
  Activity: 3.7%
HEK293S [31]
  Activity: 26%
HEK293S [32]
  Activity: 100%
HEK293S [33]
  Activity: 19%
[34]
  Kd: 7.5 nM
HEK293S [35]
  Activity: 3.9%
HEK293S [36]
  Activity: 8.1%
[37]
  Kd: 24 nM

Reference: ChEMBL document CHEMBL1136964, “Nicotinic agonist binding site mapped by methionine- and tyrosine-scanning coupled with azidochloropyridinyl photoaffinity labeling” (J Med Chem, 2009)
